Measured values as given in US20240279215A1 (Cytokinetics, Incorporated, priority 2022, published 2024).

Target: human NAMPT (Homo sapiens (Human), UniProt P43490)
Test: NMN fluorescence biochemical assay (human recombinant NAMPT enzyme assay)
Summary of the method: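 NMN formed was detected by fluorescence (Ex/Em 355/460 nm) after acetophenone, KOH and formic acid derivatization. The cell-free reaction ran 60 min at ambient temperature with 6 nM human NAMPT, 150 μM nicotinamide, 20 μM PRPP, 2.5 mM ATP, pH 7.2 HEPES, and compound dose responses.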

Chain of human NAMPT (P43490 whole entry): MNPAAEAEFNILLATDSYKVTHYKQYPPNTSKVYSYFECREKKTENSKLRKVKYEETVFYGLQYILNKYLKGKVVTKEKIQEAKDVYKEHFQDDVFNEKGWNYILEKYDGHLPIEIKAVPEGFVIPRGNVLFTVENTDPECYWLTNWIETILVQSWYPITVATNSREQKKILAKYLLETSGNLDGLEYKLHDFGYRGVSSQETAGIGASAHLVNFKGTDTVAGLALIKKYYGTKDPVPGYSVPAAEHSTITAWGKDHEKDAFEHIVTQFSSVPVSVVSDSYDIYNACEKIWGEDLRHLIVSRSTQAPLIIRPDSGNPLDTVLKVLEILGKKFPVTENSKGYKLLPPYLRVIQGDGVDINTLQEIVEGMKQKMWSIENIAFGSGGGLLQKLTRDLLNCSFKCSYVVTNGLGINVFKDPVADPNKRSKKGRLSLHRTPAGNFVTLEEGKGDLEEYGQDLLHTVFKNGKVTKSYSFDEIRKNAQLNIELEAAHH

AC1.4 Human [µM]	EC50 [µM]	SMILES
5.08	8.69	O=C(Cc1ccc(NC(=O)OCc2ccc(Cl)cc2)cc1)NC1CCOCC1 [Compound 308, (4-chlorophenyl)methyl N-(4-{[(oxan-4-yl)carbamoyl]methyl}phenyl)carbamate]
5.19	14.9	O=C(Nc1ccc(CNC(=O)N2CCC(F)(F)CC2)cc1)OCc1ccc(Cl)cc1 [Compound 309, (4-chlorophenyl)methyl N-{4-[(4,4-difluoropiperidine-1-carbonylamino)methyl]phenyl}carbamate]
5.29	32.8	O=C(Nc1ccc(CNC(=O)C2COC2)cc1)OCc1ccc(Cl)cc1 [Compound 310, (4-chlorophenyl)methyl N-{4-[(oxetan-3-ylformamido)methyl]phenyl}carbamate]
5.40	26.8	O=C(Cc1cnco1)NCc1ccc(NC(=O)OCc2ccc(Cl)cc2)cc1 [Compound 311, (4-chlorophenyl)methyl N-(4-{[2-(1,3-oxazol-5-yl)acetamido]methyl}phenyl)carbamate]
5.55	39.1	O=C1CN(C(=O)C(F)(F)c2ccc(NC(=O)OCc3ccc(Cl)cc3)cc2)CCN1 [Compound 312, (4-chlorophenyl)methyl N-{4-[1,1-difluoro-2-oxo-2-(3-oxopiperazin-1-yl)ethyl]phenyl}carbamate]
5.55	25.6	O=C(Nc1ccc(C2CCN(C3COC3)CC2)cc1)OCc1cnco1 [Compound 313, 1,3-oxazol-5-ylmethyl N-{4-[1-(oxetan-3-yl)piperidin-4-yl]phenyl}carbamate]
5.75	38.3	Cn1nccc1Cc1ccc(NC(=O)OCc2ccc(Cl)cc2)cc1 [Compound 314, 4-chlorobenzyl (4-((1-methyl-1H-pyrazol-5-yl)methyl)phenyl)carbamate]
5.91	7.32	Cn1cc(CC(=O)NCc2ccc(NC(=O)OCc3ccc(Cl)cc3)cc2)cn1 [Compound 315, (4-chlorophenyl)methyl N-(4-{[2-(1-methylpyrazol-4-yl)acetamido]methyl}phenyl)carbamate]
6.04	28.6	O=C(Nc1ccc(CC2CCN(C3COC3)CC2)cc1)OCc1ccncc1 [Compound 316]
6.19	32.4	O=C(Nc1ccc(CC(=O)N2CC[C@@H](O)C2)cc1)OCc1ccc(Cl)cc1 [Compound 317, (4-chlorophenyl)methyl N-(4-{2-[(3R)-3-hydroxypyrrolidin-1-yl]-2-oxoethyl}phenyl)carbamate]
6.26	56.8	COc1ccc(COC(=O)Nc2ccc(CN3CCN(C4COC4)CC3)cc2)cc1 [Compound 318, (4-methoxyphenyl)methyl N-(4-{[4-(oxetan-3-yl)piperazin-1-yl]methyl}phenyl)carbamate]
6.50	40.8	O=C(Nc1ccc(CC(=O)N2CC[C@H](O)C2)cc1)OCc1ccc(Cl)cc1 [Compound 319, (4-chlorophenyl)methyl N-(4-{2-[(3S)-3-hydroxypyrrolidin-1-yl]-2-oxoethyl}phenyl)carbamate]
6.60	34.2	O=C(Nc1ccc(CC2CCNCC2)cc1)OCc1cnco1 [Compound 320, oxazol-5-ylmethyl (4-(piperidin-4-ylmethyl)phenyl)carbamate]
6.86	55.7	Cc1ocnc1C(=O)NCc1ccc(NC(=O)OCc2ccc(Cl)cc2)cc1 [Compound 321, (4-chlorophenyl)methyl N-(4-{[(5-methyl-1,3-oxazol-4-yl)formamido]methyl}phenyl)carbamate]
7.23	39.3	Cc1nnc(Cc2ccc(NC(=O)OCc3ccc(Cl)cc3)cc2)o1 [Compound 322, (4-chlorophenyl)methyl N-{4-[(5-methyl-1,3,4-oxadiazol-2-yl)methyl]phenyl}carbamate]
7.41	13.3	Cc1ccc(CNC(=O)Cc2ccc(NC(=O)OCc3ccc(Cl)cc3)cc2)cn1 [Compound 323, (4-chlorophenyl)methyl N-[4-({[(6-methylpyridin-3-yl)methyl]carbamoyl}methyl)phenyl]carbamate]
7.47	50.9	COc1ccc(COC(=O)Nc2ccc(CN3CC(S(C)(=O)=O)C3)cc2)cc1 [Compound 324, (4-methoxyphenyl)methyl N-{4-[(3-methanesulfonylazetidin-1-yl)methyl]phenyl}carbamate]
7.87	51.1	COc1ccc(COC(=O)Nc2ccc(CN3CCN(C)C(=O)C3)cc2)cc1 [Compound 325, (4-methoxyphenyl)methyl N-{4-[(4-methyl-3-oxopiperazin-1-yl)methyl]phenyl}carbamate]
8.05	31.9	O=C(Nc1ccc(Cc2ccncc2)cc1)OCc1ccnnc1 [Compound 326, pyridazin-4-ylmethyl (4-(pyridin-4-ylmethyl)phenyl)carbamate]
8.21	21.1	O=C(Nc1ccc(CNC(=O)c2ccnn2C2CCC2)cc1)OCc1ccc(Cl)cc1 [Compound 327, (4-chlorophenyl)methyl N-(4-{[(2-cyclobutylpyrazol-3-yl)formamido]methyl}phenyl)carbamate]
8.56	36.3	Cc1ccc(Cc2ccc(NC(=O)OCc3ccc(C(F)F)cc3)cc2)cn1 [Compound 328, (4-(difluoro-13-methyl)phenyl)methyl (4-((6-methylpyridin-3-yl)methyl)phenyl)carbamate]
8.65	33.6	CC(O)(c1ccncc1)c1ccc(NC(=O)OCc2cncs2)cc1 (centres unmarked) [Compound 329, thiazol-5-ylmethyl (4-(1-hydroxy-1-(pyridin-4-yl)ethyl)phenyl)carbamate]
8.66	46.3	O=C(Cc1cnoc1)NCc1ccc(NC(=O)OCc2ccc(Cl)cc2)cc1 [Compound 330, (4-chlorophenyl)methyl N-(4-{[2-(1,2-oxazol-4-yl)acetamido]methyl}phenyl)carbamate]
8.67	11.9	Cc1ccc(Cc2ccc(NC(=O)OCc3ccc(F)cc3)cc2)cn1 [Compound 331, 4-fluorobenzyl (4-((6-methylpyridin-3-yl)methyl)phenyl)carbamate]
8.89	50.6	CN1CCN(C(=O)Cc2ccc(NC(=O)OCc3ccc(Cl)cc3)cc2)CC1=O [Compound 332, (4-chlorophenyl)methyl N-{4-[2-(4-methyl-3-oxopiperazin-1-yl)-2-oxoethyl]phenyl}carbamate]
9.58	38.6	O=C(Nc1ccc(Cc2ccncc2)cc1)OCc1cnoc1 [Compound 333, isoxazol-4-ylmethyl (4-(pyridin-4-ylmethyl)phenyl)carbamate]
9.87	9.33	O=C(Cn1cccn1)NCc1ccc(NC(=O)OCc2ccc(Cl)cc2)cc1 [Compound 334, (4-chlorophenyl)methyl N-(4-{[2-(pyrazol-1-yl)acetamido]methyl}phenyl)carbamate]
10.07	24.3	O=C(Nc1ccc(Cc2nccs2)cc1)OCc1ccc(Cl)cc1 [Compound 336, 4-chlorobenzyl (4-(thiazol-2-ylmethyl)phenyl)carbamate]
